Read-outs that look alike come from different tables or passages of the source.
Assay: Bioanalysis of brain and plasma samples (UPLC-MS/MS)
Format: in vivo, Sprague Dawley rats
Conditions: male, po, rat, p.o.; for Kp at 0.5 h / Kp at 1 h / Kp at 3 h / Kp at 6 h / Kp at 12 h: read-out: Brain/Plasma ratio
Protocol: Young adult Male Sprague Dawley rats of approximately 250 g weight were purchased from Charles River and received vehicle (2.5% HP betaCD+1M MeSO4, pH 2.5) or 0-40 mg/kg of test compounds (dissolved in vehicle) by oral gavage (p.o). The compounds are dosed at a volume of 5 ml/kg. Cohorts of 5-10 animals were established for each treatment condition.
Studies were set up as acute dose response treatment studies were samples were taken at T=180 minutes after initial dosing, or as 12 h or 24 h timecourse treatment studies. At the end of the test period, the animals were stunned and decapitated with a guillotine. Trunk-blood was sampled in EDTA coated tubes after decapitation of the animal. The blood was centrifuged at 2200G at 4° C. for 15 minutes and the plasma was collected and frozen at −80° C. The blood was aliquoted for Aβ ELISA and DMPK analysis. Immediately following sacrifice, the brain was extracted and split into 2 halves. The left half was dissected; with the front forebrain taken for Aβ ELISA and the remainder used for DMPK analysis. These samples were also snap frozen on dry ice and stored at −80° C. until use for analysis. The right hemibrains were snap frozen on dry ice and stored at −80° C. for independent confirmatory Aβ ELISA evalution.
TC was determined in plasma and brain homogenate using UltraPerformance LC® (UPLC®) chromatography followed by tandem-MS (MS/MS) detection.
Brain homogenate was prepared by homogenizing the brain 1:4 (v/v) with water:2-propanol:DMSO (50:30:20 v/v/v) followed by centrifugation and collection of the supernatant. Calibration standards and QC samples were prepared using a Hamilton robot. 150 μL of ISTD in acetonitrile (1 ng/mL ISTD) was added to 25 μL of calibration standards, QC samples and test samples (plasma and brain homogenate) using a Biomek robot. After centrifugation (6200 g, 4° C., 20 min) 100 μL supernatant from each sample was transferred to a new plate and mixed with 100 μL water with 0.1% formic acid using a Biomek robot (method file InVivo transfer). After a quick centrifugation (6200 g, 4° C., 5 min) the samples were placed in the auto-sampler.
MS/MS detection was done with an Applied Biosystems Sciex API 4000 instrument in positive-ion electrospray ionisation mode. TC and ISTD were detected at a parent>daughter mass to charge ratio (m/z). Nitrogen was used for the nebulizer and collision gases. The peak area correlated linearly with the plasma and brain concentration of the analytes in the range of 1.00-1000 ng/mL plasma and 5.00-5000 ng/g brain (corrected for dilution). If the plasma/brain sample drug concentration was above 1000 ng/mL or 5000 ng/g, the sample was diluted appropriately in blank plasma/blank brain homogenate before analysis.

[1] = Sprague Dawley, brain and plasma, 10 mg/kg
[2] = Sprague Dawley, brain, 10 mg/kg, read-out: Mean rat brain conc.
[3] = Sprague Dawley, plasma, 10 mg/kg, read-out: Mean rat plasma conc.
[4] = Sprague-Dawley, brain, 20 mg/kg, read-out: Mean rat brain conc.
[5] = Sprague-Dawley, brain, 40 mg/kg, read-out: Mean rat brain conc.
[6] = Sprague-Dawley, brain/plasma, 20 mg/kg
[7] = Sprague-Dawley, brain/plasma, 40 mg/kg
[8] = Sprague-Dawley, plasma, 20 mg/kg, read-out: Mean rat plasma conc.
[9] = Sprague-Dawley, plasma, 40 mg/kg, read-out: Mean rat plasma conc.

With [2H]C([2H])([2H])Oc1cnc(C(=O)Nc2ccc(F)c([C@]3(C)CC[C@@](F)(CF)C(N)=N3)c2)cn1 [Example 1, N-(3-((2S,5S)-6-amino-5-fluoro-5-(fluoromethyl)-2-methyl-2,3,4,5-tetrahydropyridin-2-yl)-4-fluorophenyl)-5-(methoxy-d3)pyrazine-2-carboxamide] the Kp at 0.5 h [1] was 1.8, the Kp at 1 h [1] was 2.3 and the Kp at 3 h [1] was 2.1. For the same compound, the Kp at 6 h [1] was 1.9, the Kp at 12 h [1] was 1.7 and the concentration at 0.5 h [2] was 550 ng/g. For the same compound, the concentration at 1 h [2] was 1100 ng/g, the concentration at 3 h [2] was 700 ng/g and the concentration at 6 h [2] was 430 ng/g. For the same compound, the concentration at 12 h [2] was 140 ng/g, the concentration at 0.5 h [3] was 300 ng/mL and the concentration at 1 h [3] was 500 ng/mL. It also gave a concentration at 3 h [3] of 340 ng/mL, a concentration at 6 h [3] of 230 ng/mL and a concentration at 12 h [3] of 79 ng/mL. The concentration at 0.5 h [4] was 1530 ng/g, the concentration at 1 h [4] was 2380 ng/g and the concentration at 3 h [4] was 1960 ng/g. For the same compound, the concentration at 6 h [4] was 1540 ng/g, the concentration at 12 h [4] was 438 ng/g and the concentration at 0.5 h [5] was 2500 ng/g. It also gave a concentration at 1 h [5] of 2800 ng/g, a concentration at 3 h [5] of 3000 ng/g and a concentration at 6 h [5] of 3700 ng/g. The concentration at 12 h [5] was 1100 ng/g, the Kp at 0.5 h [6] was 2.9 and the Kp at 1 h [6] was 3.9. The Kp at 3 h [6] was 3.4, the Kp at 6 h [6] was 3.2 and the Kp at 12 h [6] was 2.7. The Kp at 0.5 h [7] was 2.8, the Kp at 1 h [7] was 3.1 and the Kp at 3 h [7] was 2.8. It also gave a Kp at 6 h [7] of 3, a Kp at 12 h [7] of 2.5 and a concentration at 0.5 h [8] of 532 ng/mL. The concentration at 1 h [8] was 614 ng/mL, the concentration at 3 h [8] was 572 ng/mL and the concentration at 6 h [8] was 477 ng/mL. The concentration at 12 h [8] was 159 ng/mL, the concentration at 0.5 h [9] was 740 ng/mL and the concentration at 1 h [9] was 880 ng/mL. The concentration at 3 h [9] was 1100 ng/mL, the concentration at 6 h [9] was 1200 ng/mL and the concentration at 12 h [9] was 410 ng/mL.

Reference: patent US20180186769A1, “6-AMINO-5-FLUORO-5-(FLUOROMETHYL)-2,3,4,5-TETRAHYDROPYRIDIN-2-YL-PHENYL-5-(METHOXY-D3)-PYRAZINE-2-CARBOXAMIDES AND FLUORINATED DERIVATIVES THEREOF AS BACE1 INHIBITORS” (H. Lundbeck A/S, priority 2016, published 2018)
